Molecular target: T1, rat liver microsomal 5α-reductase (Rattus norvegicus, UniProt P24008)
T1 construct: The reaction was started with the addition of liver microsomes (20 μg protein); from tissue; host or cells: liver microsomes of male Sprague–Dawley rats
T1 sequence (P24008 1-259): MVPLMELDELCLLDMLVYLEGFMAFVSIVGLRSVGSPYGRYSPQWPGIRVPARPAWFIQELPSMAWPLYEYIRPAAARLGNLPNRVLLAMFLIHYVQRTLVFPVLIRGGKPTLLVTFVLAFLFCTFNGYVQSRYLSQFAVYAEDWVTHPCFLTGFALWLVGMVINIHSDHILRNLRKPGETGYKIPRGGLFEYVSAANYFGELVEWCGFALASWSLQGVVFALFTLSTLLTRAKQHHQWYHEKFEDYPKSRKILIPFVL
Assay: 5α-reductase assay using rat liver microsomes (testosterone metabolism, HPLC and TLC)
Assay type: biochemical
Details: for inhibition of 5α-reductase activity: at 10 and 100 μmol/L; for Inhibitory activity on 5α-reductase (% of control) / IC50: testosterone 3.5 μmol/L, 30 min, rat liver microsomes 40 μg/mL, HPLC; for Inhibitory activity on 5α-reductase (% of control): mean ± SEM, N = 3; for effect on 5α-reductase activity: examined at 0.1, 1, 10, and 100 μmol/L
Description: Rat liver microsomes were prepared by the method of Lee et al.. Male Sprague–Dawley rats (body weight, 300 to 320 g; Clea Japan, Tokyo, Japan) were fasted overnight to decrease the concentration of liver glycogen and then sacrificed. The liver was excised and washed in ice-cold homogenizing buffer containing 0.32 mol/L sucrose, 1 mmol/L dithiothreitol (Wako Pure Chemical Industries), and 20 mmol/L potassium phosphate, pH 6.5. The following procedures were all carried out at 4°C. The tissue was minced with a pair of scissors and then homogenized in homogenizing buffer using a Potter-Elvehjem grinder. The homogenate was then centrifuged at 10 000 g for 10 min. The resulting pellet was washed with two pellet volumes of homogenizing buffer and centrifuged again. The supernatants from the two centrifugations were combined and further centrifuged at 105 000 g for 1 h. The resulting pellet (microsomes) was suspended in homogenizing buffer and centrifuged again. The microsomes were resuspended in homogenizing buffer. The microsome suspension was divided into small aliquots and stored at −80°C. The microsomes were diluted with 40 mmol/L potassium phosphate, pH 6.5, immediately before use. Unlike human liver, rat liver microsomes have the 5α-R1 but not the 5α-R2 isoform.
Briefly, the reaction solution was preincubated with or without a test sample in 1 mmol/L dithiothreitol, 40 mmol/L potassium phosphate, pH 6.5, 100 μmol/L NADPH (Oriental Yeast, Tokyo, Japan), and 3.5 μmol/L testosterone (Wako Pure Chemical Industries) in a final volume of 0.5 mL for 20 min at room temperature. The reaction was started with the addition of liver microsomes (20 μg protein). After incubation at 37°C for 30 min, the reaction solution was extracted with 2 mL ethyl acetate. The ethyl acetate phase (upper phase) was transferred to a tube and evaporated using a centrifugal concentrator (Tomy Seiko, Tokyo, Japan). Testosterone and the metabolites were measured by two chromatography methods, HPLC (Shimadzu, Kyoto, Japan) and TLC.
The residue was dissolved in acetonitrile and analyzed using the HPLC system. The reverse-phase HPLC analysis was performed on a C18 column (3.0 × 150 mm, GL Science, Japan) at a column oven temperature of 50°C and UV detection of 240 nm. The isocratic mobile phase of acetonitrile/water (50 : 50, v/v) was flowed at 0.4 mL/min through the column.
To detect the steroids by TLC, the residue containing steroids was taken up in ethanol and chromatographed on a TLC plate (Silica gel 60 F254, Merck, Darmstadt, Germany), using ethyl acetate-hexane (1 : 1, v/v) as the developing solvent system at room temperature. Testosterone, (Tokyo Chemical Industry Co., Tokyo, Japan) and 5α-androstane-3α,17β-diol (Sigma-Aldrich) were applied to TLC as androgen standards. The plate was exposed to 10% sulfuric acid using an atomizer and then heated on a hot plate. The fluorescent signals were visualized by irradiation of UV light at 302 nm using a ChemiDoc XRS Plus (BIO-RAD, Hercules, CA).

Row | SMILES | inhibition of 5α-reductase activity | Inhibitory activity on 5α-reductase (% of control) (test sample 0.1 μmol/L) | Inhibitory activity on 5α-reductase (% of control) (test sample 1 μmol/L) | Inhibitory activity on 5α-reductase (% of control) (test sample 10 μmol/L) | Inhibitory activity on 5α-reductase (% of control) (test sample 100 μmol/L) | IC50 | effect on 5α-reductase activity
1 | O=C(O[C@H]1[C@@H]2OC(=O)c3cc(O)c(O)c(O)c3-c3c(cc(O)c(O)c3O)C(=O)OC[C@H]2OC(O)[C@@H]1OC(=O)c1cc(O)c(O)c(O)c1)c1cc(O)c(O)c(O)c1 (stereo partly shown) [1-Desgalloyl eugeniin, 1-desgalloyl eugeniin] | more than 50% | 4.6 ± 0.2 % of control | 9.2 ± 1.6 % of control | 52.5 ± 2.4 % of control | 107.9 ± 0.9 % of control | 12.6 µM | 
2 | Oc1cc(O)c2c(c1)O[C@H](c1ccc(O)c(O)c1)[C@@H](O)C2 [(+)-catechin] |  |  |  |  |  |  | did not show any effect
3 | Oc1cc(O)c2c(c1)O[C@H](c1cc(O)c(O)c(O)c1)[C@@H](O)C2 [(+)-gallocatechin, (+)-Gallocatechin] |  |  |  |  |  |  | did not show any effect
4 | O=C1c2c(O)cc(O)cc2O[C@H](c2ccc(O)c(O)c2)[C@H]1O [(+)-taxifolin] |  |  |  |  |  |  | did not show any effect
5 | O=C(O[C@@H]1Cc2c(O)cc(O)cc2O[C@@H]1c1ccc(O)c(O)c1)c1cc(O)c(O)c(O)c1 [(−)-Epicatechin gallate, (−)-epicatechin gallate] | more than 50% | 4.6 ± 0.2 % of control | 4.9 ± 0.2 % of control | 5.9 ± 0.3 % of control | 69.4 ± 1.2 % of control | 10 to 100 µM | 
6 | O=C(O[C@@H]1Cc2c(O)cc(O)cc2O[C@@H]1c1cc(O)c(O)c(O)c1)c1cc(O)c(O)c(O)c1 [(−)-Epigallocatechin gallate, (−)-epigallocatechin gallate] | more than 50% | 3.7 ± 0.1 % of control | 4.4 ± 0.4 % of control | 5.3 ± 0.3 % of control | 58.6 ± 2.7 % of control | 10 to 100 µM | 
7 | Oc1cc(O)c2c(c1)O[C@@H](c1cc(O)c(O)c(O)c1)[C@H](O)C2 [(−)-gallocatechin] |  |  |  |  |  |  | did not show any effect
8 | O=C1OC[C@H]2OC(=O)c3cc(O)c(O)c(O)c3-c3c(O)c(O)c(O)c4c3C(=O)O[C@H]([C@H]3OC(=O)c5c-4c(O)c(O)c(O)c5[C@H]3O)[C@@H]2OC(=O)c2cc(O)c(O)c(O)c2-c2c1cc(O)c(O)c2O [Castalagin, castalagin] | more than 50% | 4.9 ± 0.5 % of control | 6.3 ± 1.2 % of control | 70.7 ± 3.2 % of control | 113.3 ± 7.6 % of control | 8 µM | 
9 | O=C(O[C@@H]1COC(=O)c2cc(O)c(O)c(O)c2-c2c(cc(O)c(O)c2O)C(=O)O[C@H]1[C@@H]1OC(=O)c2cc(O)c(O)c(O)c2-c2c(O)c(O)c(O)c3c2C(=O)O[C@H]1[C@@H]3O)c1cc(O)c(O)c(O)c1 [Casuarinin, casuarinin] | more than 50% | 6.4 ± 1.4 % of control | 10.8 ± 0.7 % of control | 59.0 ± 2.0 % of control | 110.1 ± 0.5 % of control | 10.5 µM | 

Reference: article PMC4325551, “Inhibition of Rat 5α-Reductase Activity and Testosterone-Induced Sebum Synthesis in Hamster Sebocytes by an Extract of Quercus acutissima Cortex” (Evidence-based Complementary and Alternative Medicine : eCAM, 2015)
